Test results published in patent US20210132041A1, “TARGET FOR DRUG TREATMENT OF TUMOR METASTASIS AND USE THEREOF” (PEKING UNIVERSITY, priority 2018, published 2021).

Assays:
B16-F10 cells [1] = experiment: MTS cell proliferation assay; type: cell-based, mouse; settings: FIG. 1, in vitro
Description: MTS: Same numbers of PRAK WT and KO cells were plated on 96-well plates. Cell Titer 96 Aqueous cell proliferation detection solution was added at different time points after the cells adhered to the walls. After incubation at 37° C. for 1 to 4 hours, the absorbance was measured at 490 nm and the cell proliferation curve was drawn.

B16-F10 cells [2] = experiment: AnnexinV/7-AAD staining, apoptosis by flow cytometry; type: cell-based, mouse; settings: FIG. 2; 0.1 μM and 1 μM, 24 hours
Description: AnnexinV/7-AAD staining: Cells were plated on 24-well plates. 0.1 μM and 1 μM of PRAK inhibitor-23 were added for treatment after the cells adhered to the walls. After 24 hours, the cells were harvested for Annexin V/7-AAD staining, and the cell apoptosis was analyzed by flow cytometry.

B16-F10 tumors = experiment: Growth of subcutaneously inoculated B16-F10 tumors in C57BL/6 mice; type: in vivo, mouse; settings: FIG. 5, 2 mg/kg/d intraperitoneal
Description: 3. Effects on tumor growth in situ Experimental procedure: The C57BL/6 female mice of 6 to 8 week old (commercially available, for example, from Charles River) were selected for the experiment. The B16-F10 cells in the logarithmic growth phase were digested, and washed twice with PBS. After counting, the cells were resuspended in PBS at a density of 1.5×10^6/ml. The tumor cells (3×10^5 cells in 200 μL) were subcutaneously inoculated into the lateral ribs of mice. The drug-treated group was intraperitoneally injected with PRAK inhibitor-23 at 2 mg/kg/d.
The long diameter (L) and short diameter (S) of the tumor were measured with vernier calipers every two days, the tumor size was calculated with the formula L×S×S×0.5, and the tumor growth curve was drawn.

[3] = tested on: spontaneous breast tumors; experiment: Incidence and growth of spontaneous breast tumors in MMTV-PyMT mice; type: in vivo, mouse; settings: FIG. 12, 1 mg/kg every other day from 12th week, week 15
Description: The MMTV-PyMT mice were crossed with PRAK mice to obtain MMTV-PRAK WT and MMTV-PRAK knockout mice. From 8 to 10 weeks, the occurrence of breast tumors was observed. Another group of MMTV-PRAK WT mice were given PRAK inhibitor (1 mg/kg) every other day from the 12th week. At week 15, the mice were sacrificed, breast tumor nodules were counted and weighed, and lung tumor nodules were counted at the same time.

O=C1NCc2cc(-c3cnc(Nc4ccc(N5CCOCC5)cc4)c4nccn34)ccc21 [PRAK inhibitor-23, 5-(8-((4-morpholinylphenyl)amino)imidazo [1,2-a]pyrazin-5-yl) isoindol-1-one]
no significant effect: effect on the proliferation of B16-F10 cells (B16-F10 cells [1]) | effect on the apoptosis of B16-F10 cells (B16-F10 cells [2]) | effect on the growth of subcutaneously inoculated B16-F10 tumors at the injection site (B16-F10 tumors) | effect on the incidence and growth of spontaneous breast tumors [3]
